Molecules are shown by their SMILES. pIC50: −log10 of the molar value.

These results are taken from patent US10173991B2, “Sulfone amide linked benzothiazole inhibitors of endothelial lipase” (BRISTOL-MYERS SQUIBB COMPANY, priority 2014, dated 2019).

Sequence of Endothelial lipase (EL) (Q9Y5X9 21-500): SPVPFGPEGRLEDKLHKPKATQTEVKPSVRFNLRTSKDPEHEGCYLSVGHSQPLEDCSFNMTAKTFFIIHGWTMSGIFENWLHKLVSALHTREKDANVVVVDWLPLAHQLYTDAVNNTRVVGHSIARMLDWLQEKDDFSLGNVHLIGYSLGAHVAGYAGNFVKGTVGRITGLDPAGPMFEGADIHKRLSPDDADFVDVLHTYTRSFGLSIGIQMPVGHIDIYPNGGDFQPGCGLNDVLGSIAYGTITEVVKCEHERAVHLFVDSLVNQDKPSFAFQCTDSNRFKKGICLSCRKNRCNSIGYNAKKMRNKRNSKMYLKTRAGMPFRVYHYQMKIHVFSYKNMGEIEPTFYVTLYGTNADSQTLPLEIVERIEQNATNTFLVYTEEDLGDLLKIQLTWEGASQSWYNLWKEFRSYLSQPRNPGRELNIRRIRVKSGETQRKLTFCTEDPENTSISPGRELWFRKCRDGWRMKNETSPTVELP

The assay deals with Endothelial lipase (EL) (Homo sapiens (Human), UniProt Q9Y5X9). Put plainly: Endothelial lipase (EL) enzymatic assay with fluorescent substrate A10070 in DMPG vesicles. It is filed as biochemical. In short, it runs like this:
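Compounds were preincubated with enzyme for 30 min at 37° C before FRET-substrate vesicles (A10070 in DMPG, 0.11 mole fraction) were added. Reaction rates were obtained from the 300–900 sec slope of fluorescence at 490/530 nm.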
Regarding `COCCS(=O)(=O)C(C(=O)NCC(=O)NC1CC1)c1nc2cc(-c3cnc(F)c(C)c3)ccc2s1` (stereo not shown) [Example 78, N-[(cyclopropyl-carbamoyl)methyl]-2-[5-(6-fluoro-5-methylpyridin-3-yl)-1,3-benzothiazol-2-yl]-2-(2-methoxyethane-sulfonyl) acetamide], the negative logarithm of the IC50 (pIC50) – broadly, the negative decadic logarithm of the IC50, by convention in mol/L – is 7.42.

With `COCCS(=O)(=O)C(C(=O)NCC(=O)NC1CC1)c1nc2cc(-c3ccncc3)ccc2s1` (stereo not shown) [Example 79, N-[(cyclopropyl-carbamoyl)methyl]-2-(2-methoxyethane-sulfonyl)-2-[5-(pyridin-4-yl)-1,3-benzothiazol-2-yl]acetamide], the pIC50 was 7.40.

In the case of `COCCS(=O)(=O)C(C(=O)NCC(=O)NC1CC1)c1nc2cc(-c3ccncc3Cl)ccc2s1` (stereo not shown) [Example 80, 2-[5-(3-chloropyridin-4-yl)-1,3-benzothiazol-2-yl]-N-[(cyclopropyl-carbamoyl)methyl]-2-(2-methoxyethane-sulfonyl) acetamide], the pIC50 is 7.31.

The compound `COCCS(=O)(=O)C(C(=O)NCC(=O)NC1CC1)c1nc2cc(-c3cnc(F)cc3C)ccc2s1` (stereo not shown) [Example 81, N-[(cyclopropyl-carbamoyl)methyl]-2-[5-(6-fluoro-4-methylpyridin-3-yl)-1,3-benzothiazol-2-yl]-2-(2-methoxyethane-sulfonyl) acetamide] gave a pIC50 of 7.24. This pIC50 and that of the compound before are within 0.2 log units of each other.

`COCCS(=O)(=O)C(C(=O)NCC(=O)NC1CC1)c1nc2cc(-c3cccnc3F)ccc2s1` (stereo not shown) [Example 82, N-[(cyclopropyl-carbamoyl)methyl]-2-[5-(2-fluoropyridin-3-yl)-1,3-benzothiazol-2-yl]-2-(2-methoxyethane-sulfonyl) acetamide] gave a pIC50 of 7.21.

Compound `COCCS(=O)(=O)C(C(=O)NCC(=O)NC1CC1)c1nc2cc(-c3ccc(Cl)cn3)ccc2s1` (stereo not shown) [Example 83, 2-[5-(5-chloropyridin-2-yl)-1,3-benzothiazol-2-yl]-N-[(cyclopropyl-carbamoyl)methyl]-2-(2-methoxyethane-sulfonyl)acetamide] gave a pIC50 of 7.15.

In turn, `COCCS(=O)(=O)C(C(=O)NCC(=O)NC1CC1)c1nc2cc(-c3cccc(OC)c3)ccc2s1` (stereo not shown) [Example 84, N-[(cyclopropyl-carbamoyl)methyl]-2-(2-methoxyethane-sulfonyl)-2-[5-(3-methoxyphenyl)-1,3-benzothiazol-2-yl]acetamide] gave a pIC50 of 7.09. This pIC50 and that of the compound before are within 0.2 log units of each other.

`COCCS(=O)(=O)C(C(=O)NCC(=O)NC1CC1)c1nc2cc(-c3cccnc3)ccc2s1` (stereo not shown) [Example 85, N-[(cyclopropyl-carbamoyl)methyl]-2-(2-methoxyethane-sulfonyl)-2-[5-(pyridin-3-yl)-1,3-benzothiazol-2-yl]acetamide] showed a pIC50 of 7.07.

Take `COCCS(=O)(=O)C(C(=O)NCC(=O)NC1CC1)c1nc2cc(-c3cncnc3C(C)C)ccc2s1` (stereo not shown) [Example 86, N-[(cyclopropyl-carbamoyl)methyl]-2-(2-methoxyethane-sulfonyl)-2-{5-[4-(propan-2-yl)pyrimidin-5-yl]-1,3-benzothiazol-2-yl}acetamide]: the pIC50 is 6.53.

In the case of `CCOc1ncccc1-c1ccc2sc(C(C(=O)NCC(=O)NC3CC3)S(=O)(=O)CCOC)nc2c1` (stereo not shown) [Example 87, N-[(cyclopropyl-carbamoyl)methyl]-2-[5-(2-ethoxypyridin-3-yl)-1,3-benzothiazol-2-yl]-2-(2-methoxyethane-sulfonyl) acetamide], the pIC50 was 6.46.

`COCCS(=O)(=O)C(C(=O)NCC(=O)NC1CC1)c1nc2cc(-c3ccc(F)nc3C)ccc2s1` (stereo not shown) [Example 88, N-[(cyclopropyl-carbamoyl)methyl]-2-[5-(6-fluoro-2-methylpyridin-3-yl)-1,3-benzothiazol-2-yl]-2-(2-methoxyethane-sulfonyl) acetamide] showed a pIC50 of 7.09.

`COCCS(=O)(=O)C(C(=O)NCC(=O)NC1CC1)c1nc2cc(-c3cccc(F)n3)ccc2s1` (stereo not shown) [Example 89, N-[(cyclopropyl-carbamoyl)methyl]-2-[5-(6-fluoropyridin-2-yl)-1,3-benzothiazol-2-yl]-2-(2-methoxyethane-sulfonyl) acetamide] gave a pIC50 of 6.77.

The compound `COCCS(=O)(=O)C(C(=O)NCC(=O)NC1CC1)c1nc2cc(-c3ccc(F)cn3)ccc2s1` (stereo not shown) [Example 90, N-[(cyclopropyl-carbamoyl)methyl]-2-[5-(5-fluoropyridin-2-yl)-1,3-benzothiazol-2-yl]-2-(2-methoxyethane-sulfonyl) acetamide] had a pIC50 of 6.56.

With `COCCS(=O)(=O)C(C(=O)NCC(=O)NC1CC1)c1nc2cc(-c3cccnc3C)ccc2s1` (stereo not shown) [Example 91, N-[(cyclopropyl-carbamoyl)methyl]-2-(2-methoxyethane-sulfonyl)-2-[5-(2-methylpyridin-3-yl)-1,3-benzothiazol-2-yl]acetamide], the pIC50 is 7.74.

For the compound `COCCS(=O)(=O)C(C(=O)NCC(=O)NC1CC1)c1nc2cc(-c3c(C)ccnc3F)ccc2s1` (stereo not shown) [Example 92, N-[(cyclopropyl-carbamoyl)methyl]-2-[5-(2-fluoro-4-methylpyridin-3-yl)-1,3-benzothiazol-2-yl]-2-(2-methoxyethane-sulfonyl) acetamide], the pIC50 is 7.11.

Turning to `COCCS(=O)(=O)C(C(=O)NCC(=O)NC1CC1)c1nc2ccc(-c3ccc(-c4ncco4)cc3)cc2s1` (stereo not shown) [Example 93, N-[(cyclopropyl-carbamoyl)methyl]-2-(2-methoxyethane-sulfonyl)-2-{6[4-(1,3-oxazol-2-yl)phenyl]-1,3-benzothiazol-2-yl} acetamide], the pIC50 was 9.00.

For `COCCS(=O)(=O)C(C(=O)NCC(=O)NC1CC1)c1nc2cc(Cl)c(-c3ccc(NC(=O)OC)cc3)cc2s1` (stereo not shown) [Example 94, methyl N-{4-[5-chloro-2-({[(cyclopropyl-carbamoyl)methyl]carbamoyl}(2-methoxyethane-sulfonyl)methyl)-1,3-benzothiazol-6-yl]phenyl} carbamate], the pIC50 is 8.70.

Compound `COC(=O)Nc1ccc(-c2ccc3nc(C(C(=O)NCC(=O)NC4CC4)S(C)(=O)=O)sc3c2)cc1` (stereo not shown) [Example 95, methyl N-{4-[2-({[(cyclopropyl-carbamoyl)methyl]carbamoyl} (methanesulfonyl)methyl)-1,3-benzothiazol-6-yl]phenyl}carbamate] gave a pIC50 of 8.70.

`COCCS(=O)(=O)C(C(=O)NCC(=O)NC1CC1)c1nc2cc(Cl)c(-c3ccc(NC(C)=O)cc3)cc2s1` (stereo not shown) [Example 96, 2-[5-chloro-6-(4-acetamidophenyl)-1,3-benzothiazol-2-yl]-N-[(cyclopropyl-carbamoyl)methyl]-2-(2-methoxyethane-sulfonyl) acetamide]: the pIC50 is 8.70.

The compound `COCCS(=O)(=O)C(C(=O)NCC(=O)NC1CC1)c1nc2ccc(-c3ccc(C(=O)NCC(F)(F)F)cc3)cc2s1` (stereo not shown) [Example 97, 4-[2-({[(cyclopropyl-carbamoyl)methyl]carbamoyl}(2-methoxyethane-sulfonyl)methyl)-1,3-benzothiazol-6-yl]-N-(2,2,2-trifluoroethyl) benzamide] showed a pIC50 of 8.40. This pIC50 is 0.30 log units lower than that of the compound before.

As to `COCCS(=O)(=O)C(C(=O)NCC(=O)NC1CC1)c1nc2ccc(-c3ccc(NC(C)=O)cc3)cc2s1` (stereo not shown) [Example 98, N-[(cyclopropyl-carbamoyl)methyl]-2-[6-(4-acetamidophenyl)-1,3-benzothiazol-2-yl]-2-(2-methoxyethane-sulfonyl) acetamide], the pIC50 was 8.10.

Turning to `COCCNC(=O)c1ccc(-c2cc3sc(C(C(=O)NCC(=O)NC4CC4)S(=O)(=O)CCOC)nc3cc2Cl)cc1` (stereo not shown) [Example 99, 4-[5-chloro-2-({[(cyclopropyl-carbamoyl)methyl]carbamoyl}(2-methoxyethane-sulfonyl)methyl)-1,3-benzothiazol-6-yl]-N-(2-methoxyethyl) benzamide], the pIC50 was 8.10.

As to `COCCS(=O)(=O)C(C(=O)NCC(=O)NC1CC1)c1nc2ccc(-c3ccc(NC(=O)OC)cc3)cc2s1` (stereo not shown) [Example 100, methyl N-{4-[2-({[(cyclopropyl-carbamoyl)methyl]carbamoyl}(2-methoxyethane-sulfonyl)methyl)-1,3-benzothiazol-6-yl]phenyl} carbamate], the pIC50 was 8.10.

For `COCCS(=O)(=O)C(C(=O)NCC(=O)NC1CC1)c1nc2ccc(-c3ccc(-c4nnc(C)o4)cc3)cc2s1` (stereo not shown) [Example 101, N-[(cyclopropyl-carbamoyl)methyl]-2-(2-methoxyethane-sulfonyl)-2-{6-[4-(5-methyl-1,3,4-oxadiazol-2-yl)phenyl]-1,3-benzothiazol-2-yl} acetamide], the pIC50 is 8.05.

In turn, `CC(=O)Nc1ccc(-c2ccc3nc(C(C(=O)NCC(=O)NC4CC4)S(C)(=O)=O)sc3c2)cc1` (stereo not shown) [Example 102, N-[(cyclopropyl-carbamoyl)methyl]-2-[6-(4-acetamidophenyl)-1,3-benzothiazol-2-yl]-2-methanesulfonyl-acetamide] showed a pIC50 of 7.85.

As for `CS(=O)(=O)C(C(=O)NCC(=O)NC1CC1)c1nc2ccc(-c3ccc(C(=O)NCC(F)(F)F)cc3)cc2s1` (stereo not shown) [Example 103, 4-[2-({[(cyclopropyl-carbamoyl)methyl]carbamoyl} (methanesulfonyl)methyl)-1,3-benzothiazol-6-yl]-N-(2,2,2-trifluoroethyl) benzamide], the pIC50 was 7.70.

Consider `COCCS(=O)(=O)C(C(=O)NCC(=O)NC1CC1)c1nc2cc(-c3ccc(NC(=O)OC)cc3)ccc2s1` (stereo not shown) [Example 104, methyl N-{4-[2-({[(cyclopropyl-carbamoyl)methyl]carbamoyl}(2-methoxyethane-sulfonyl)methyl)-1,3-benzothiazol-5-yl]phenyl} carbamate], for which the pIC50 is 7.55.

`COCCS(=O)(=O)C(C(=O)NCC(=O)NC1CC1)c1nc2cc(Cl)c(-c3ccc(F)nc3)cc2s1` (stereo not shown) [Example 105, 2-[5-chloro-6-(6-fluoropyridin-3-yl)-1,3-benzothiazol-2-yl]-N-[(cyclopropyl-carbamoyl)methyl]-2-(2-methoxyethane-sulfonyl)acetamide]: the pIC50 was 7.55.
